# In patent US12048704B2, “Method for treatment of cancer with combination of cold atmospheric plasma and a gene inhibitor” (Jerome Canady Research Institute for Advanced Biological …, priority 2019, dated 2024):
# System: MDA-MB-231 cells
# Assay: MTT cell viability assay with/without CAP treatment
# Type: cell-based, Human
# Conditions: for cell viability (baseline toxicity), agent alone: MDA-MB-231, without CAP treatment, MTT 24 hours
# Method: Human breast cancer cell lines T-47D, SK-BR-3, and BT-474, were purchased from ATCC (Manassas, Va., USA). MCF-7, MDA-MB-231, Hs578T, and HCC1806 were generously donated by Professor Kanaan' s laboratory at Howard University. All cell lines except SK-BR-3 were cultured in Roswell Park Memorial Institute (RPMI) 1640 Medium supplemented with 10% fetal bovine serum (Sigma-Aldrich, St. Louis, Mo., USA) and 1% Pen Strep (Thermo Fisher Scientific, Waltham, Mass., USA) in a 37° C. and 5% CO2 humidified incubator (Thermo Fisher Scientific, Waltham, Mass., USA). The exceptions for culture conditions include T-47D, which was additionally supplemented with 0.5 mg/mL insulin. SK-BR-3 was cultured in McCoy's 5A Medium. When cells reached approximately 80% confluence, cells were seeded at a concentration of 10^5 cells/well into 12-well plates (USA Scientific, Ocala, Fla., USA) with a 1 mL media volume per well for cell viability assays. MDA-MB-231 cells were transfected with siRNA and transfection reagent according to the manufacturer's instructions. Transfection of BCL2A1 esiRNA or control esiRNA was done at 13 pmol. Briefly, cells were seeded in a 12-well-plate at a density of 1×10^5 cells/well overnight in (RPMI) 1640 Medium supplemented with 10% fetal bovine serum (Sigma-Aldrich, St. Louis, Mo., USA) and 1% Pen Strep (Thermo Fisher Scientific, Waltham, Mass., USA) in a 37° C. and 5% CO2 humidified incubator. The media was replaced with antibiotics-free medium RPMI 2 minutes before the transfection. esiRNA was mixed with Lipofectamine RNAiMAX transfection reagent in 100 μl optimal medium at the required concentration of 13 pmol/mL and were incubated at room temperature for 30 min to form a complex and the mixture was supplemented to each well with optimal medium. Four hours after the transfection, the transfected cells were CAP treated. After 24 hours after the CAP treatment, cells viability was assessed by using MTT assay. Thiazolyl blue tetrazolium bromide (MTT) assay was performed on the cells 24 hours after plasma treatment following the manufacturer's protocol with all MTT assay reagents purchased from Sigma-Aldrich (St. Louis, Mo., USA). The absorbance of the dissolved compound was measured by BioTek Synergy HTX (Winooski, Vt., USA) microplate reader at 570 nm following standard procedure. All viability assays were repeated 3 times with at least 2 replicates each. Data was plotted by Microsoft Excel 2016 as the mean±standard error of the mean. A student t-test or a one-way analysis of variance (ANOVA) was used to check statistical significance where applicable. The differences were considered statistically significant for * p<0.05. A one-way multivariate analysis of variance (MANOVA) followed by a Post-Hoc test was used to check statistical significance where applicable. […] At 24 hrs after transfection with BCL2A1 esiRNA (13 pmol), as mentioned in methods section survival of treatments was determined by MTT assay. The data is represented by the SEM (n=3). (**** P<0.0001* p<0.05, ** p<0.01, *** p<0.001, Student's t-test) versus control. FIGS. 19A-19B show viability of triple cancer breast cancer cell line MDA-MB-231 with Gambogic acid, an antagonist of antiapoptotic Bc1-2 family (FIG. 19A) or CPI203 (FIG. 19B, a BET bromodomain inhibitor after CAP treatment. Bar graph represents MDA-MB-231 MTT cell viability assay after treatment with Gambogic acid (FIG. 19A) or CPI203 (FIG. 19B) in combination of with/without CAP treatment at 80 p Or 120 p 5 mins at 3 L/min He. The samples were compared to the mock control groups. The data is represented by the SEM (n=3). (* p<0.05, ** p<0.01, *** p<0.001, Student's t-test).
structure (smiles),measurement,setting,value
Cc1sc2c(c1C)C(c1ccc(Cl)cc1)=N[C@@H](CC(N)=O)c1nnc(C)n1-2 [CPI203],"cell viability, CPI203 with CAP treatment","MDA-MB-231, 0.25 uM, p<0.05",significant reduction in cell viability
same,"cell viability, CPI203 with CAP treatment","MDA-MB-231, 1uM, p<0.01",significant reduction in cell viability
same,"cell viability, CPI203 with CAP treatment","MDA-MB-231, 5uM, p<0.001",significant reduction in cell viability
same,"cell viability (baseline toxicity), agent alone",,without any cytotoxicity by itself
same,"CAP-induced cell death, combination of CAP and agent","breast cancer cells, p<0.05",dramatically increased the CAP-induced cell death
"CC(C)=CCC[C@]1(C)C=Cc2c(O)c3c(c(CC=C(C)C)c2O1)O[C@]12C(=C[C@@H]4C[C@H]1C(C)(C)O[C@@]2(C/C=C(/C)C(=O)O)C4=O)C3=O [GA, gambogic acid]",cell viability in combination with CAP treatment compared to CAP treatment alone,"MDA-MB-231, CAP 80 p or 120 p 5 mins at 3 L/min He, MTT 24 hours after CAP",no dose that significantly reduced the viability of cells
same,"cell viability (baseline toxicity), agent alone",,cell viability decreased in all the 5 doses
